The source of these data is ChEMBL document CHEMBL5715260, “Selectivity Literature for EUbOPEN Chemogenomic Library” (2024).

Parameters in all cases: recommended concentration 1 uM
For test [1], the target named is Nuclear receptor subfamily 2 group E member 1 (Homo sapiens) (UniProt Q9Y466). Description: Selectivity interaction (Reporter gene assay) EUB0001169a NR2E1. (In general: In a reporter assay the amount or activity of a reporter protein is the signal.)
Test [2] has as its target T1, Hepatocyte nuclear factor 4-alpha (Homo sapiens) (UniProt P41235).
T1 sequence (whole entry): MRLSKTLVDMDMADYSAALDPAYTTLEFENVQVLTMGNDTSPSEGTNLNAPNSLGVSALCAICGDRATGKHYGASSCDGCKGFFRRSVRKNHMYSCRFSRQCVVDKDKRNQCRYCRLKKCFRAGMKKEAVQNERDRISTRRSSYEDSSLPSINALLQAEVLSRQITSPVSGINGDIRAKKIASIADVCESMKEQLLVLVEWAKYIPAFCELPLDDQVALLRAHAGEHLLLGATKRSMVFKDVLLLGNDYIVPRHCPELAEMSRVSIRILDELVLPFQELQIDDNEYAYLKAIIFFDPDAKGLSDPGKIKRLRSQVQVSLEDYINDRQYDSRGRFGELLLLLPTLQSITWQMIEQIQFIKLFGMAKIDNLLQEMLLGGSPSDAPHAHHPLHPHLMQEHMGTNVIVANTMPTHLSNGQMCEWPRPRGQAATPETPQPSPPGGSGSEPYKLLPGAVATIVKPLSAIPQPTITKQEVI
As to the kind of experiment: Selectivity interaction (Reporter gene assay) EUB0001169a HNF4A.

The target of test [3] is T2, Retinoic acid receptor RXR-alpha (Homo sapiens) (UniProt P19793).
T2 sequence (whole entry): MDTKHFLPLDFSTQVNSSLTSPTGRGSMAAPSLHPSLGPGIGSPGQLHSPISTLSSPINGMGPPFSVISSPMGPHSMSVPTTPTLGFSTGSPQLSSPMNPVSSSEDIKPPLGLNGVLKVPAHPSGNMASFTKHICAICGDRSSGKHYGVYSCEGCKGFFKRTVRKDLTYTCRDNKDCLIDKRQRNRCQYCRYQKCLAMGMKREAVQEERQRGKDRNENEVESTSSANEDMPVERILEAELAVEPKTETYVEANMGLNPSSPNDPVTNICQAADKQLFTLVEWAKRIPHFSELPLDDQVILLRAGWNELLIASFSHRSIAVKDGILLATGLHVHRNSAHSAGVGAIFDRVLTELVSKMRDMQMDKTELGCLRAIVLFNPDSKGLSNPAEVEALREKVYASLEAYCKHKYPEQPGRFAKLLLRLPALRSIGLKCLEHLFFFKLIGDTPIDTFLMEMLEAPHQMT
Description: Selectivity interaction (Reporter gene assay) EUB0001169a RXRA.

Test [4] concerns the target Steroidogenic factor 1 (Homo sapiens) (UniProt Q13285). Description: Selectivity interaction (Reporter gene assay) EUB0001169a NR5A1. The following applies: screened at recom. conc., Selectivity number of off-targets 1.0, Selectivity number of targets 5.0, Source Knowledge inhouse.
Test [5] addresses T3, Alpha trans-inducing protein (Human alphaherpesvirus 1) (UniProt A0A5J6DW59). Description: Selectivity interaction (Reporter gene assay) EUB0001169a UL48.
Test [6] deals with T4, Nuclear receptor subfamily 2 group C member 1 (Homo sapiens) (UniProt P13056).
T4 sequence (whole entry): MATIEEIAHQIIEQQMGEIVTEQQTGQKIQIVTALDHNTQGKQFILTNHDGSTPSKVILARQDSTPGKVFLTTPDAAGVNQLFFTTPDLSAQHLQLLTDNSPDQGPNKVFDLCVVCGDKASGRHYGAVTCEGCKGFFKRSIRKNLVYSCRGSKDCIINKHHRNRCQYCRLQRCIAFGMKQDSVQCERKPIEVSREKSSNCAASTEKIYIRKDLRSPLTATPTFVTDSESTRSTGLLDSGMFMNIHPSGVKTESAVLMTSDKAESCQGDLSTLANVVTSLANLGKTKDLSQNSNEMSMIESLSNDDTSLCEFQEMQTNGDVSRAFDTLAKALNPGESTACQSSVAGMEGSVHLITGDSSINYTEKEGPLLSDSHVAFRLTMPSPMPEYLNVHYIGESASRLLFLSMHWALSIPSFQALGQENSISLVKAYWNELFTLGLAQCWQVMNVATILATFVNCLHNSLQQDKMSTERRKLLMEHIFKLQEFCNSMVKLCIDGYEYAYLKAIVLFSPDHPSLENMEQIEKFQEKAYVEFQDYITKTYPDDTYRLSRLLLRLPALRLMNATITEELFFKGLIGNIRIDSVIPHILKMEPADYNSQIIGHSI
Description: Selectivity interaction (Reporter gene assay) EUB0001169a NR2C1.

Test [7] deals with Nuclear receptor subfamily 4immunitygroup A member 1 (Homo sapiens) (UniProt P22736). Description: Selectivity interaction (Reporter gene assay) EUB0001169a NR4A1.
Nuclear receptor subfamily 4immunitygroup A member 1 (Homo sapiens), sequence (P22736 whole entry): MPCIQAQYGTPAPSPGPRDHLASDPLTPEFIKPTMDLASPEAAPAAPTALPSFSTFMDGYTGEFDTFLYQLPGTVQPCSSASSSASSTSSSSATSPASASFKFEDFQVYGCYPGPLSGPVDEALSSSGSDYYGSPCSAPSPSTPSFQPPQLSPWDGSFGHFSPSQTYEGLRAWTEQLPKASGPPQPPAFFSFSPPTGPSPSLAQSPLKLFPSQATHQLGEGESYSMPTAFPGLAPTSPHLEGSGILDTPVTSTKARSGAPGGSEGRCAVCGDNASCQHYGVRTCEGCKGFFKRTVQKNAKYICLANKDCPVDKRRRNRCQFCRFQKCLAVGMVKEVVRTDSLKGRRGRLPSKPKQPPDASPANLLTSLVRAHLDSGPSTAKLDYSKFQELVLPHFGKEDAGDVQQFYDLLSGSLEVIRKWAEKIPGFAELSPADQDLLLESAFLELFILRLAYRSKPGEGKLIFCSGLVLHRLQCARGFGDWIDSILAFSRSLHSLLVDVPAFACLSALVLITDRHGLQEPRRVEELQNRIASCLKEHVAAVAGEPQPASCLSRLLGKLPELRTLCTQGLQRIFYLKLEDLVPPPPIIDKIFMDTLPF
Test [8] addresses T3, Alpha trans-inducing protein (Human alphaherpesvirus 1). As to the kind of experiment: Selectivity interaction (Reporter gene assay) EUB0001172a UL48.
The target of test [9] is T4, Nuclear receptor subfamily 2 group C member 1 (Homo sapiens). Description: Selectivity interaction (Reporter gene assay) EUB0001170a NR2C1.
Test [10] concerns the target Nuclear receptor subfamily 4immunitygroup A member 1 (Homo sapiens) (UniProt P22736). Description: Selectivity interaction (Reporter gene assay) EUB0001170a NR4A1.
Test [11] concerns the target Steroidogenic factor 1 (Homo sapiens) (UniProt Q13285). Description: Selectivity interaction (Reporter gene assay) EUB0001170a NR5A1.
Test [12] addresses T1, Hepatocyte nuclear factor 4-alpha (Homo sapiens). Description: Selectivity interaction (Reporter gene assay) EUB0001170a HNF4A.
The target in test [13] is T2, Retinoic acid receptor RXR-alpha (Homo sapiens). As to the kind of experiment: Selectivity interaction (Reporter gene assay) EUB0001170a RXRA. Particulars: reference bexarotene 1 uM, Selectivity number of off-targets 0.0, Selectivity number of targets 1.0, Source Knowledge inhouse.
In test [14] the target is Nuclear receptor subfamily 2 group E member 1 (Homo sapiens) (UniProt Q9Y466). As to the kind of experiment: Selectivity interaction (Reporter gene assay) EUB0001170a NR2E1.
The target in test [15] is T3, Alpha trans-inducing protein (Human alphaherpesvirus 1). Description: Selectivity interaction (Reporter gene assay) EUB0001170a UL48.
Test [16] shares this target. Description: Selectivity interaction (Reporter gene assay) EUB0001166a UL48.
Test [17] addresses Steroidogenic factor 1 (Homo sapiens) (UniProt Q13285). Description: Selectivity interaction (Reporter gene assay) EUB0001166a NR5A1.
Test [18] addresses Nuclear receptor subfamily 2 group E member 1 (Homo sapiens) (UniProt Q9Y466). Description: Selectivity interaction (Reporter gene assay) EUB0001166a NR2E1.
Test [19] concerns the target T1, Hepatocyte nuclear factor 4-alpha (Homo sapiens). As to the kind of experiment: Selectivity interaction (Reporter gene assay) EUB0001166a HNF4A.
The target in test [20] is T2, Retinoic acid receptor RXR-alpha (Homo sapiens). As to the kind of experiment: Selectivity interaction (Reporter gene assay) EUB0001166a RXRA. The following applies: reference bexarotene 1 uM, Selectivity number of off-targets 0.0, Selectivity number of targets 1.0, Source Knowledge inhouse.
Test [21] addresses Nuclear receptor subfamily 4immunitygroup A member 1 (Homo sapiens) (UniProt P22736). As to the kind of experiment: Selectivity interaction (Reporter gene assay) EUB0001166a NR4A1.
The target in test [22] is T4, Nuclear receptor subfamily 2 group C member 1 (Homo sapiens). Description: Selectivity interaction (Reporter gene assay) EUB0001166a NR2C1.

Structures are written as SMILES.

Nuclear receptor subfamily 2 group E member 1 (Homo sapiens), sequence (Q9Y466 whole entry): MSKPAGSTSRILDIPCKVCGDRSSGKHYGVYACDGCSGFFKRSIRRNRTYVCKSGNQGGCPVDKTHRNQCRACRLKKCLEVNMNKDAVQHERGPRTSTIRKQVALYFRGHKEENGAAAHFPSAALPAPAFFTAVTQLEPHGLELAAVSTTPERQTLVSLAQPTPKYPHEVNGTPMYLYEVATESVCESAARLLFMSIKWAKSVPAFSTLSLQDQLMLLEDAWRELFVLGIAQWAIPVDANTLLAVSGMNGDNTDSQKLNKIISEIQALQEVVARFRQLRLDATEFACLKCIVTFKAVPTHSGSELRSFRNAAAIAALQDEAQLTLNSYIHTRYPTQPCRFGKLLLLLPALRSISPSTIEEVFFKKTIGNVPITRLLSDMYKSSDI
T3 sequence (A0A5J6DW59 as listed by the source): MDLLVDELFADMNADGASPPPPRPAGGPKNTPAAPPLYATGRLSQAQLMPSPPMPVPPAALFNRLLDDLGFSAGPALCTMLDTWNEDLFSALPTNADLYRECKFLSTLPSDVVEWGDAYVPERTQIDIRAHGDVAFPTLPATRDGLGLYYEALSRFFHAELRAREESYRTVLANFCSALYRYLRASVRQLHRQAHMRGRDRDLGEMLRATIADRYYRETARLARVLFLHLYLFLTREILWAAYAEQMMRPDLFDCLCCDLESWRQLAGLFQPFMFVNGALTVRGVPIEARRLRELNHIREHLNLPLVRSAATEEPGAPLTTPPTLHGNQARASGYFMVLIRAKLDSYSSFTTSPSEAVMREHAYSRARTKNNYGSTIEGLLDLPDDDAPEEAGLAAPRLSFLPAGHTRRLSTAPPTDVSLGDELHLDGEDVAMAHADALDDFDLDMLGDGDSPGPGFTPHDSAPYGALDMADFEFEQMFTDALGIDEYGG
Steroidogenic factor 1 (Homo sapiens), sequence (Q13285 whole entry): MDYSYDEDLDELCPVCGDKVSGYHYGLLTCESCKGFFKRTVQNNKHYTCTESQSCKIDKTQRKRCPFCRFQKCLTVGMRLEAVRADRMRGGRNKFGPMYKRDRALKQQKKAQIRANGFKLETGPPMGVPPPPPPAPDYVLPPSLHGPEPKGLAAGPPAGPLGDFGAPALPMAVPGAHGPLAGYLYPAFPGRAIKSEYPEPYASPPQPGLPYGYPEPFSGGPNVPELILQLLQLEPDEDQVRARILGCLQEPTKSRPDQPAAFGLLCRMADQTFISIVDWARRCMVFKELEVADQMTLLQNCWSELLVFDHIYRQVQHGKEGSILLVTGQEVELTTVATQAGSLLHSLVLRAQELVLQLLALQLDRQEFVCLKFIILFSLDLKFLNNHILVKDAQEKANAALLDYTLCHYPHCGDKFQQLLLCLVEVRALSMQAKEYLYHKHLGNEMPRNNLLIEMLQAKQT

`O=C(O)c1cc(F)c2nc(N3[C@@H]4CC[C@H]3C[C@@H](OCc3c(-c5ccccc5OC(F)(F)F)noc3C3CC3)C4)sc2c1`: the Remaining activity in test [1] came out at 0.961; in test [2], 0.655; in [4], 0.47; in test [7], 0.696. For the same molecule, the Relative activation in test [3] came out at 0.815%. This molecule also came in with a P-value in test [5] of 0.00151. In addition, the Fold activation in test [6] was 1.28.
`CC(C)(C[C@H]1CN(S(=O)(=O)c2cccc(C(F)(F)F)c2)c2cc(-c3cc(F)cc(OC(F)F)c3)ccc2O1)C(=O)O`: the P-value in [8] was determined as 4.9e-12.
In the case of `CC(C)C(=O)N1CCC(c2cn(C)c3ncc(NC(=O)c4cccc(C#N)c4)c(C(F)(F)F)c23)CC1`, the Remaining activity in test [9] amounted to 0.916; in test [14], 0.839. The Fold activation in [10] was found to be 1.14; in test [11], 1.12; in test [12], 1.08. Moreover, the Relative activation in test [13] amounted to 0.336%. Further, in [15], the P-value worked out at 0.00111.
The molecule `CC(C)(O)c1cn(-c2ccc(-c3cccc(S(C)(=O)=O)c3)cc2)c(C(C)(C)c2ccccc2Cl)n1` gave a P-value in test [16] of 0.000455. The Fold activation in test [17] turned out to be 1.21; in test [19], 1.15; in [21], 1.01; in test [22], 1.38. The molecule further registered a Remaining activity in [18] of 0.931. Further, the Relative activation in test [20] was 0.459%.
